Experiment: Human HepG2 cell viability assay in 384 well format
Type: toxicity, cell-based
Design: dose 125 nL, time 70.5 hour; concentration not given beside the values
Details: HepG2 cells, read-out: Inhibition

Row | SMILES | cytotoxicity at 70.5 h [%]
1 | Cc1ccccc1NC(=O)Nc1cc(N2CCCC2)ncn1 | 10.8
2 | CC1CCN(c2cc(NC(=O)C3CC3)ncn2)CC1 | 0.806
3 | Cc1cc(=O)n(CCNS(=O)(=O)c2ccccc2)cn1 | -1.2
4 | O=C(NCCn1cnc(C2CCCC2)cc1=O)NCc1cccs1 | -7.11
5 | Cc1ncn(CCNC(=O)Nc2ccccc2)c(=O)c1C | 21.4
6 | Cn1nc(N2CCCC(C(=O)Nc3nc4ccccc4s3)C2)ccc1=O (stereo not given) | 1.88
7 | CCOc1cc(NC(=O)C2CC(=O)N(c3cccc(OC)c3)C2)ncn1 (stereo not given) | -2.94
8 | O=C(c1ccc(F)cc1F)N(CC(F)(F)F)C1CCOCC1 | -4.08
9 | Cn1nc(C(=O)N2CC(Oc3nc4c(Cl)cccc4s3)C2)ccc1=O | -8.11
10 | COc1cccc2sc(OC3CN(C(=O)C4=COCCO4)C3)nc12 | -8.14
11 | COCC(C)(O)CNC(=O)c1cc(-c2cc(OC)ccc2OC)nn1C (stereo not given) | 6.52
12 | O=C(NCCOc1ccccc1)NCC(O)c1cccs1 (stereo not given) | -11.8
13 | CCOCC(=O)NCCc1nc(C2CC2)cc(C(F)(F)F)n1 | -4.83
14 | CC(=O)NCc1cc(-c2cccs2)n(C2CCCC2)n1 | -2.19
15 | COCCNC(=O)NCc1cc(-c2cccs2)n(C2CCCC2)n1 | -8.68
16 | COCCNC(=O)NCc1cc(-c2ccncc2)n(C2CCCC2)n1 | -13.6
17 | O=C1CCSCC(C(=O)NCc2nc(-c3ccccc3)no2)N1 (stereo not given) | -11.9
18 | Cc1noc(CNC(=O)C2CSCCC(=O)N2)n1 (stereo not given) | -12.9
19 | Cn1nnc2c(N3CC(C(=O)NCCC4=CCCCC4)C3)ncnc21 | -18.5
20 | Cn1nnc2c(N3CC(C(=O)NCc4cccs4)C3)ncnc21 | -1.73
21 | O=C(O)CC(CC(=O)NCc1ccsc1)c1cccs1 (stereo not given) | -5.7
22 | Cn1cccc1CN(C(=O)CC(CC(=O)O)c1cccs1)C1CC1 (stereo not given) | -9.4

Row | SMILES | cytotoxicity at 70.5 h [%]
23 | Cc1ccc(S(=O)(=O)NCC(O)c2ccoc2)s1 (stereo not given) | -12.5
24 | O=S(=O)(NCC(O)c1ccoc1)c1ccc(Cl)s1 (stereo not given) | 23
25 | O=S(=O)(NCC(O)c1ccoc1)c1ccc(Br)s1 (stereo not given) | -1.32
26 | O=C(NCc1cccs1)NCC(O)c1ccoc1 (stereo not given) | -3.33
27 | O=C(Cc1ccc(F)cc1)NCCc1ccoc1 | -5.69
28 | CCOc1ccccc1NC(=O)NCCc1ccoc1 | 12.2
29 | CC(C)(C)NC(=O)N1CCC(Oc2ccc(C(F)(F)F)cn2)CC1 | -6.24
30 | O=C(c1cnccn1)N1CCC(Oc2ncccc2Cl)CC1 | 4.06
31 | O=C(c1cc(C2CC2)on1)N1CCC(Oc2ncccc2Cl)CC1 | -6.96
32 | N#Cc1cccnc1OC1CCN(C(=O)c2cc(C3CC3)on2)CC1 | -6.54
33 | N#Cc1cccnc1OC1CCN(S(=O)(=O)c2ccc(Br)cc2)CC1 | -12.9
34 | Cn1nc(C(=O)N2CCC(Oc3ccc(C#N)cn3)CC2)ccc1=O | -11
35 | CN1CCCC(C(=O)N2CCC(Oc3ccc(C#N)cn3)CC2)C1 (stereo not given) | -5.58
36 | N#Cc1ccc(C(=O)N2CCC(Oc3ccc(C#N)cn3)CC2)cc1 | -3.02
37 | O=C(Cn1ccc2ccccc21)N1CCC(Oc2cnccn2)CC1 | -7
38 | O=C(Cn1cccn1)N1CCC(Oc2cnccn2)CC1 | -6.46
39 | CN(C)S(=O)(=O)N1CCC(Oc2cccnn2)CC1 | 0.601
40 | Cc1ccc(S(=O)(=O)N2CCC(Oc3cccnn3)CC2)c(C)c1 | -8.17
41 | COC(=O)c1ccc(S(=O)(=O)N2CCC(Oc3cccnn3)CC2)cc1 | -8.01
42 | O=C(Cn1ccc2ccccc21)N1CCC(Oc2ncccc2Br)CC1 | -3.13
43 | Cc1cccc(OC2CCN(C(=O)c3ccc4c(c3)OCO4)CC2)n1 | -7.71
44 | Cc1cccc(OC2CCN(S(=O)(=O)Cc3cccc(F)c3)CC2)n1 | -1.18

Row | SMILES | cytotoxicity at 70.5 h [%]
45 | COC(=O)c1sccc1S(=O)(=O)N1CCC(Oc2cccc(C)n2)CC1 | -9.62
46 | O=C(COc1ccc(-n2cccn2)nn1)NC1CCCCC1 | 0.192
47 | O=C(Nc1cnc(Oc2ccccc2F)nc1)C1CC1 | -3.71
48 | Cc1ccc(C)c(S(=O)(=O)NCCNc2ccc(-n3cccc3)nn2)c1 | -7.55
49 | CC(=O)N1CCN(c2cc(-n3cccc3)ncn2)CC1 | -7.94
50 | CS(=O)(=O)N1CCCC12CCCN(C(=O)c1ccc3c(c1)OCO3)C2 (stereo not given) | -7.38
51 | COCC(=O)N1CCC2(CC(=O)N(c3cccc(F)c3)C2)C1 (stereo not given) | -9.01
52 | Cc1noc(C)c1CN1C[C@@H]2OCCN(Cc3cnn(C)c3)[C@@H]2C1 | -21.6
53 | CN1CCN(C(=O)c2n[nH]c3c2CCN(Cc2nccs2)C3)CC1 | -11.9
54 | COCC1c2nnn(CC3CC3)c2CCN1C(=O)N1CCCC1 (stereo not given) | 14.1
55 | COCC1c2nnn(CC3CC3)c2CCN1C(=O)c1cccn1C (stereo not given) | 9.68
56 | CC(C)NC(=O)N1CCCn2cnc(CN3CCCC3=O)c2C1 | 27.9
57 | Cc1noc(C2CCC3(CCN(C(=O)c4cnccn4)CC3)O2)n1 (stereo not given) | 3.99
58 | Cc1noc(C2CCC3(CCN(C(=O)C4CCOCC4)CC3)O2)n1 (stereo not given) | 2.64
59 | CCS(=O)(=O)N1CCc2cc(C(=O)N(C)C)c(NCC3CC3)nc2CC1 | 0.785
60 | Cc1occc1C(=O)N1CCCn2cnc(CN3CCCC3=O)c2C1 | -0.779
61 | CN(C)C(=O)N1CCC2(CC1)COCCN(c1ncccn1)C2 | -3.19
62 | Cc1cc(C(=O)N2CCc3ncnc(-c4cnn(C)c4)c3CC2)no1 | 2.85
63 | Cc1ccccc1C(=O)N1CCCn2cnc(CN3CCCC3=O)c2C1 | -4.3
64 | CC(C)NC(=O)N1CCC2(CC1)COc1ccccc1S(=O)(=O)N(C)C2 | 0.573
65 | CCOCC1CN(S(=O)(=O)C2CC2)Cc2ncn(CC3CC3)c21 (stereo not given) | -4.92
66 | Cc1ccc(C(=O)N2CCc3ncnc(-c4cnn(C)c4)c3CC2)o1 | -7.08

Row | SMILES | cytotoxicity at 70.5 h [%]
67 | COCC1CN(S(=O)(=O)C2CC2)Cc2ncn(CC3CC3)c21 (stereo not given) | -1.47
68 | O=C1CCCN1Cc1ncn2c1CN(C(=O)Cc1ccccc1)CCC2 | 0.61
69 | Cc1noc(C2CCC3(CCN(C(=O)c4cnn(C)c4)CC3)O2)n1 (stereo not given) | -10.3
70 | CN(C)CC(=O)N1CCC2(CC1)COc1ccccc1S(=O)(=O)N(C)C2 | 0.316
71 | COCC(=O)N1CCC2(CC1)COc1ccccc1S(=O)(=O)N(C)C2 | 0.748
72 | COCC1CN(C(=O)CS(C)(=O)=O)Cc2ncn(CC3CC3)c21 (stereo not given) | 1.88
73 | Cc1cccc(S(=O)(=O)N2CCCC3(CCCN3S(C)(=O)=O)C2)c1 (stereo not given) | 3.22
74 | COCc1ncn2c1CN(C(=O)Nc1ccccc1)CC2 | -4.33
75 | COCC(=O)N1CCC2(COCc3cnc(NCc4ccco4)nc32)C1 (stereo not given) | -2.26
76 | Cc1nccc([C@H]2C[C@@H]3CCN(S(=O)(=O)C4CC4)C[C@H]3O2)n1 | 0.462
77 | Cc1nccc([C@@H]2C[C@@H]3CCN(S(=O)(=O)C4CC4)C[C@H]3O2)n1 | -1.95
78 | CS(=O)(=O)N1CCCC12CCCN(S(=O)(=O)c1cccc(F)c1)C2 (stereo not given) | 2.16
79 | CNC(=O)[C@@]12CCC3(CCNCC3)[C@@H]1CN(S(C)(=O)=O)C2 | 4.08
80 | COCC1CN(Cc2ccsc2)Cc2cnn(C)c21 (stereo not given) | -2.85
81 | N#Cc1ccc(C(=O)N2C[C@H](OCc3cccnc3)[C@H]3COC[C@H]32)cc1 | 3.47
82 | O=C1CC2(CCN(c3nncs3)C2)CN1c1cccc(F)c1 (stereo not given) | -3.52
83 | O=C(c1cocn1)N1CC[C@H]2OCC[C@@]2(COc2ncccc2F)C1 | -15.1
84 | COCC1CN(S(=O)(=O)N(C)C)Cc2ncn(CC3CC3)c21 (stereo not given) | 2.72
85 | CCOCC(=O)N1CCOCC2(CCN(c3ncccn3)C2)C1 (stereo not given) | 2.44
86 | O=C(NCC1CC1)[C@@H]1CC[C@@H]2[C@@H](CCN2Cc2ccc(F)c(F)c2)O1 | 2.42
87 | COc1ccc(CN2CC[C@H]3O[C@@H](C(=O)NCC4CC4)CC[C@H]32)cc1 | -8.24
88 | Cc1ccc(CN2Cc3nnn(C)c3C(COCc3ccccc3)C2)s1 (stereo not given) | 4.74

Row | SMILES | cytotoxicity at 70.5 h [%]
89 | COCc1ncn2c1CN(C(=O)c1ccc3ccccc3n1)CC2 | 6.36
90 | CS(=O)(=O)NC1CC2(CCN(CCF)CC2)Oc2ccccc21 (stereo not given) | -4.96
91 | CN(C)C(=O)COC[C@]12COC[C@H]1CN(Cc1ccco1)C2 | 0.692
92 | O=C(c1ccncc1F)N1CC[C@@H]2OC(COCC3CC3)CC[C@@H]21 (stereo not given in full) | 5.27
93 | CC(C)CN1CCC2(CC1)CC(NS(C)(=O)=O)c1ccccc1O2 (stereo not given) | 3.23
94 | CC(C)CN1CCC2(CC1)C(=O)Nc1ccc(C(=O)NC(C)C)cc12 | -0.986
95 | CC(C)NC(=O)c1ccc2c(c1)C1(CCN(C)CC1)C(=O)N2 | 2.1
96 | CC(C)NC(=O)N1C[C@H](OCc2cccnc2)[C@H]2COC[C@H]21 | 0.936
97 | O=C(CC1CCC2(CC1)CCN(Cc1ccncc1)CC2)N1CCCC1 | 6.54
98 | O=c1ccc2c([nH]1)CCC(NCc1ccc(F)cc1)C2 (stereo not given) | -5.16
99 | O=C1CC2(CCN(Cc3cccnc3)C2)CN1c1cccc(F)c1 (stereo not given) | -16.5
100 | Cc1ccc2c(n1)N(CCn1cccn1)CCN(CC1CC1)C2 | -3.95
101 | Cc1ccc2c(n1)N(CCn1cccn1)CCN(C1CCOCC1)C2 | -5.52
102 | Cc1ccc(CN2Cc3nnn(C)c3C(COCc3ccccn3)C2)s1 (stereo not given) | -0.991
103 | COCCN1CCc2cc(C(=O)NC(C)C)c(NCC3CC3)nc2CC1 | -0.245
104 | CCn1nnc2c1C(COCCN(C)C)CN(Cc1ccc(C)s1)C2 (stereo not given) | 3.05
105 | CC(C)CCN1CCc2cc(C(=O)N(C)C)c(NCC3CC3)nc2CC1 | 5.09
106 | COCCO[C@H]1CCN(Cc2ccsc2)[C@H]1Cc1cccnc1 | 24.4
107 | O=C(Cc1ccccn1)N1C[C@H](OCc2cccnc2)[C@H]2COC[C@H]21 | 0.247
108 | CCn1ncc2c1C(COC)CN(Cc1cccnc1)C2 (stereo not given) | 21.4
109 | CN(C)CCN1CCN(Cc2ccco2)Cc2cccnc21 | -4.07
110 | c1cncc(CN2CCC3(CC2)CC(c2cccnc2)CO3)c1 (stereo not given) | -6.23

From ChEMBL document CHEMBL3507680, “University of Dundee, Gates Library screen for HepG2 cell viability”
